Assay results: ChEMBL document CHEMBL5029183 (J Med Chem, 2021)
Calls of active or inactive are those of the source.

Columns and labels:
Mu-type opioid receptor [1] = target: Mu-type opioid receptor (Rattus norvegicus, UniProt P33535); experiment: Displacement of [3H]DAMGO from MOR in Wistar rat brain membranes measured after 1 hr by scintillation counting method; type: cell membranes, Membrane
[2] = target: Delta-type opioid receptor (Rattus norvegicus, UniProt P33533); experiment: Displacement of [3H]DPDPE from DOR in Wistar rat brain membranes measured after 3 hrs by scintillation counting method; type: cell membranes, Membrane
Sequence of Delta-type opioid receptor (P33533 whole entry): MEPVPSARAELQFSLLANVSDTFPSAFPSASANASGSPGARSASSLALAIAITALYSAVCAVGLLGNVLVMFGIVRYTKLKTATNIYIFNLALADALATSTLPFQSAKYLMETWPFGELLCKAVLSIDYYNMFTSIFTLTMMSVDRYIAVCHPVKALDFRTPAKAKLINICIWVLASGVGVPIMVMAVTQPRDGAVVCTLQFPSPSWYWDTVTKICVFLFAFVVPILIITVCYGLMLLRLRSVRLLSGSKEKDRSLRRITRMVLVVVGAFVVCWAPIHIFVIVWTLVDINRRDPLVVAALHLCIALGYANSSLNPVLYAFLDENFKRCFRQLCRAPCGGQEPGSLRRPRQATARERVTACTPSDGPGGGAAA

Rattus norvegicus = species on record: Rattus norvegicus; experiment: Selectivity index, ratio of Ki for displacement of [3H]DPDPE from DOR in Wistar rat brain membranes to Ki for displacement of [3H]DAMGO from MOR in Wistar rat brain membranes; type: cell membranes
Ileum = experiment: Inhibition of electric-field induced guinea pig ileum contraction; type: functional, tissue-based; details: Cavia porcellus
Vas deferens = experiment: Inhibition of electric-field induced mouse vas deferens contraction; type: functional, tissue-based
Mu-type opioid receptor [3] = target: Mu-type opioid receptor (Homo sapiens, UniProt P35372); experiment: Agonist activity at mu-opioid receptor (unknown origin) expressed in HEK293 cells assessed as inhibition of forskolin-induced cAMP accumulation incubated for 15 mins by ELISA; type: functional, cell-based
Sequence of Mu-type opioid receptor (Homo sapiens, UniProt P35372) (P35372 whole entry): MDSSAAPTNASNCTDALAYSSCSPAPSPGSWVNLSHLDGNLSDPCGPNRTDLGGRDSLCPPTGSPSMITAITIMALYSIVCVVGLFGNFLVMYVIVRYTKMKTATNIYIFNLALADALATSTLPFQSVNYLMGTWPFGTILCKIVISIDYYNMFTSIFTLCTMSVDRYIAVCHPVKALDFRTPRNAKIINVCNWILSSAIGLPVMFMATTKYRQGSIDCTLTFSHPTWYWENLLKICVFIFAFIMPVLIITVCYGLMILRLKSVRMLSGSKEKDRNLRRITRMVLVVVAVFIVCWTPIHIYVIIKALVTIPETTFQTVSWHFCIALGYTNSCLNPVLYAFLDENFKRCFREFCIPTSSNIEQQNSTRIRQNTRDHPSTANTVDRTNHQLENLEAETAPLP

[4] = target: Delta-type opioid receptor (Homo sapiens) (UniProt P41143); experiment: Agonist activity at delta-opioid receptor (unknown origin) expressed in HEK293 cells assessed as inhibition of forskolin-induced cAMP accumulation incubated for 15 mins by ELISA; type: functional, cell-based
Sequence of Delta-type opioid receptor (Homo sapiens) (P41143 whole entry): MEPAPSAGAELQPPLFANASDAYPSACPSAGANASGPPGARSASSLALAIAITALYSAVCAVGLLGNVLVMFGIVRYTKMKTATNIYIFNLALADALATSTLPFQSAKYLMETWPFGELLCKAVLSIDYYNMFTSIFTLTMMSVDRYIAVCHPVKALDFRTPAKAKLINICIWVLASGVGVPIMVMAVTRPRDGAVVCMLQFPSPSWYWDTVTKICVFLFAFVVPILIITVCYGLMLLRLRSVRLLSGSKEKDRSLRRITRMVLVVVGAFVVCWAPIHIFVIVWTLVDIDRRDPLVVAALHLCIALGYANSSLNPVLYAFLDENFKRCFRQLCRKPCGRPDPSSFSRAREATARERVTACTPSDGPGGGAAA

[5] = Metabolic stability in Kunming mouse brain assessed as half life measured upto 480 mins by RP-HPLC analysis; type: ADME, tissue-based
[6] = Metabolic stability in Kunming mouse serum assessed as half life measured upto 480 mins by RP-HPLC analysis; type: ADME, cell-free
Mus musculus [7] = experiment: Antinociceptive activity in Kunming mouse model assessed as increase in paw withdrawal latency at 0.67 to 20 nmol, icv by radiant heat paw withdrawal assay; type: functional, organism-based; details: dose 0.67-20 nmol, TDE = time-dependent effect
Mus musculus [8] = experiment: Antinociceptive activity in Kunming mouse model assessed as increase in paw withdrawal latency at 0.67 to 20 nmol, icv measured after 10 mins by radiant heat paw withdrawal assay; type: functional, organism-based; details: dose 0.67-20 nmol
Mus musculus [9] = experiment: Antinociceptive activity in Kunming mouse model assessed as increase in paw withdrawal latency at 0.67 to 20 nmol, icv measured upto 50 mins by radiant heat paw withdrawal assay; type: functional, organism-based; details: dose 0.67-20 nmol, time min <=50
Mus musculus [10] = experiment: Antinociceptive activity in Kunming mouse model assessed as increase in paw withdrawal latency at 20 nmol, icv pretreated for 4 hrs with beta-FNA followed by compound addition and measured upto 10 mins by radiant heat paw withdrawal assay; type: functional, organism-based; details: time min <=10
Mus musculus [11] = experiment: Antinociceptive activity in Kunming mouse model assessed as increase in paw withdrawal latency at 20 nmol, icv pretreated for 20 mins with naloxonazine followed by compound addition and measured upto 10 mins by radiant heat paw withdrawal assay; type: functional, organism-based; details: time min <=10
Mus musculus [12] = experiment: Antinociceptive activity in Kunming mouse model assessed as increase in paw withdrawal latency at 20 nmol, icv pretreated for 30 mins with nor-BNI followed by compound addition and measured upto 10 mins by radiant heat paw withdrawal assay; type: functional, organism-based; details: time min <=10
Mus musculus [13] = experiment: Antinociceptive activity in Kunming mouse model assessed as increase in paw withdrawal latency at 10 micromol/kg, sc by radiant heat paw withdrawal assay; type: functional, organism-based; details: dose 10.0 µmol/kg
Mus musculus [14] = experiment: Antinociceptive activity in Kunming mouse model assessed as increase in paw withdrawal latency at 10 micromol/kg, sc at 10 to 90 mins by radiant heat paw withdrawal assay; type: functional, organism-based; details: dose 10.0 µmol/kg, time 10-90 min
Mus musculus [15] = experiment: Antinociceptive activity in Kunming mouse model assessed as maximum possible effect at 10 micromol/kg, sc by radiant heat paw withdrawal assay; type: functional; details: dose 10 µmol/kg
Mus musculus [16] = experiment: Antinociceptive activity in Kunming mouse model assessed as increase in paw withdrawal latency at 10 micromol/kg, sc pretreated with icv dosed naloxone for 5 mins followed by compound addition by radiant heat paw withdrawal assay; type: functional, organism-based; details: dose 10.0 µmol/kg
Mus musculus [17] = experiment: Antinociceptive activity in Kunming mouse model assessed as increase in paw withdrawal latency at 10 micromol/kg, sc pretreated with icv dosed naloxone methiodide for 5 mins followed by compound addition by radiant heat paw withdrawal assay; type: functional, organism-based; details: dose 10.0 µmol/kg
Mus musculus [18] = experiment: Antinociceptive activity in Kunming mouse model assessed as increase in paw withdrawal latency at 10 micromol/kg, sc pretreated with sc dosed naloxone methiodide for 5 mins followed by compound addition by radiant heat paw withdrawal assay; type: functional, organism-based; details: dose 10.0 µmol/kg
Mus musculus [19] = experiment: Antiallodynic activity in icv dosed Kunming mouse model of spared nerve injury-induced neuropathic pain assessed as increase in paw withdrawal threshold measured upto 50 mins by von Frey test; type: functional, organism-based; details: dose 0.67-6.7 nmol, time min <=50
Mus musculus [20] = experiment: Antiallodynic activity in Kunming mouse model of spared nerve injury-induced neuropathic pain assessed as increase in paw withdrawal threshold at 0.67 to 6.7 nmol, icv by von Frey test; type: functional, organism-based; details: dose 0.67-6.7 nmol, time min <=50, TDE = time-dependent effect
Mus musculus [21] = experiment: Antiallodynic activity in Kunming mouse model of spared nerve injury-induced neuropathic pain assessed as increase in paw withdrawal threshold at 0.67 to 6.7 nmol, icv after 50 mins by von Frey test; type: functional, organism-based; details: dose 0.67-6.7 nmol
Mus musculus [22] = experiment: Antiallodynic activity in Kunming mouse model of spared nerve injury-induced neuropathic pain assessed as increase in paw withdrawal threshold at 10 micromol/kg, sc by von Frey test; type: functional, organism-based; details: dose 10.0 µmol/kg
Mus musculus [23] = experiment: Antiallodynic activity in Kunming mouse model of spared nerve injury-induced neuropathic pain assessed as increase in paw withdrawal threshold at 10 micromol/kg, sc measured at 10 to 50 mins by von Frey test; type: functional, organism-based; details: dose 10.0 µmol/kg, time 10-50 min
Mus musculus [24] = experiment: Antiallodynic activity in Kunming mouse model of CFA-induced inflammatory pain assessed as increase in ipsilateral withdrawal threshold at 0.67 to 6.7 nmol, icv by von Frey test; type: functional, organism-based; details: dose 0.67-6.7 nmol, time 10-50 min, TDE = time-dependent effect
Mus musculus [25] = experiment: Antiallodynic activity in Kunming mouse model of CFA-induced inflammatory pain assessed as increase in ipsilateral withdrawal threshold at 10 micromol/kg, sc measured at 10 to 50 mins by von Frey test; type: functional, organism-based; details: dose 10.0 µmol/kg, time 10-50 min
Mus musculus [26] = species on record: Mus musculus; experiment: Antinociceptive tolerance in Kunming mouse pretreated with 3 times ED50 of compound for 2 hrs followed by challenge with second dose of compound by radiant heat paw withdrawal test; type: functional
Mus musculus [27] = experiment: Antinociceptive tolerance in Kunming mouse pretreated with compound for 3 hrs followed by challenge with second dose of compound at 20 nmol, icv and measured after 1 to 1.5 hrs by radiant heat paw withdrawal test; type: functional, organism-based; details: time 4-4.5 hrs
Mus musculus [28] = experiment: Antinociceptive tolerance in Kunming mouse pretreated with compound for 3 hrs followed by challenge with second dose of compound at 20 nmol, icv and measured after 2 to 2.5 hrs by radiant heat paw withdrawal test; type: functional, organism-based; details: time lower 5.0 hrs, time upper […]
[29] = Toxicity in icv dosed Kunming mouse assessed as inhibition of gastrointestinal transit by measuring charcoal distance travel by charcoal meal test; type: organism-based; details: in vivo, icv_or_intrathecal, dose 0.67-6.7 nmol
[30] = Toxicity in Kunming mouse model assessed as conditioned place preference time at 20 nmol, icv; details: in vivo, icv_or_intrathecal
[31] = Toxicity in Kunming mouse model assessed as conditioned place preference time at 10 micromol/kg, sc; details: in vivo, dose 10 µmol/kg
[32] = Toxicity in Kunming mouse assessed as effect on motor coordination at 20 nmol, icv by rotarod test; details: in vivo, icv_or_intrathecal
[33] = Toxicity in Kunming mouse assessed as effect on motor coordination at 10 micromol/kg, sc by rotarod test; type: organism-based; details: in vivo, dose 10 µmol/kg

Sequence of Mu-type opioid receptor (Rattus norvegicus, UniProt P33535) (P33535 whole entry): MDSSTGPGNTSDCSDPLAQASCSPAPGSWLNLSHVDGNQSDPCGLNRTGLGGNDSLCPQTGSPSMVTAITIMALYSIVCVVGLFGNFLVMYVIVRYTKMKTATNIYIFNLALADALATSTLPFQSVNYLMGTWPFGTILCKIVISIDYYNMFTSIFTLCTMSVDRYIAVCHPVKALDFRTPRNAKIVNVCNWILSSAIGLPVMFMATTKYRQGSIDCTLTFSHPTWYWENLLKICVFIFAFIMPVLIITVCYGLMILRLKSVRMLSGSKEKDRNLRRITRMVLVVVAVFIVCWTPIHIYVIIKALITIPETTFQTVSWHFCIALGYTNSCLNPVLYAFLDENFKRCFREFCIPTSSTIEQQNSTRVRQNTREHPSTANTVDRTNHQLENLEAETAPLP

| SMILES | Ki (Mu-type opioid receptor [1]) | Ki [2] | Ratio Ki (Rattus norvegicus) | IC50 (Ileum) | IC50 (Vas deferens) | EC50 (Mu-type opioid receptor [3]) | Activity [4] | half-life [5] | half-life [6] | Activity (Mus musculus [7]) | Activity (Mus musculus [8]) | Activity (Mus musculus [9]) | Activity (Mus musculus [10]) | Activity (Mus musculus [11]) | Activity (Mus musculus [12]) | Activity (Mus musculus [13]) | Activity (Mus musculus [14]) | MPE (Mus musculus [15]) | Activity (Mus musculus [16]) | Activity (Mus musculus [17]) | other results |
| --- | --- | --- | --- | --- | --- | --- | --- | --- | --- | --- | --- | --- | --- | --- | --- | --- | --- | --- | --- | --- | --- |
| Cc1cc(O)cc(C)c1C[C@H](N)C(=O)N[C@H]1CSSC[C@@H](C(=O)NCC(=O)N[C@H](CCCNC(=N)N)C(=O)N[C@H](CCCNC(=N)N)C(=O)O)NC(=O)[C@H](Cc2ccc(Cl)cc2)NC(=O)[C@H](Cc2c[nH]c3ccccc23)NC1=O | 0.00578 µM | 2.09 µM | 361 | 0.00921 µM | 0.0475 µM | 0.0136 µM | inactive | 7.48 h | 5.58 h | Tde | Active | Active | inactive | Active | Active | Active | Active | 79.76% | inactive | inactive | Activity (Mus musculus [18]): Active; Activity (Mus musculus [19]): Dose-Dependent Effect; Activity (Mus musculus [20]): Tde; Activity (Mus musculus [21]): inactive; Activity (Mus musculus [22]): Active; Activity (Mus musculus [23]): Active; Activity (Mus musculus [24]): Tde; Activity (Mus musculus [25]): Active; ED50 (Mus musculus [26]): 2.7 nmol; Activity (Mus musculus [27]): inactive; Activity (Mus musculus [28]): Active; Activity [29]: Dose-Dependent Effect; Time [30]: 447 s; Time [31]: 453 s; Activity [32]: Non-Toxic; Activity [33]: Non-Toxic |
| Cc1cc(O)cc(C)c1C[C@H](N)C(=O)N[C@H]1CSSC[C@@H](C(=O)NCC(=O)N[C@H](CCCNC(=N)N)C(=O)N[C@H](CCCNC(=N)N)C(=O)O)NC(=O)[C@H](Cc2ccc(Cl)cc2)NC(=O)[C@H](Cc2ccccc2)NC1=O | 0.00606 µM | 4.27 µM | 705 | 0.0118 µM | 0.0493 µM | 0.0143 µM | inactive | 7.13 h | 5.33 h | Tde | Active | Active | inactive | inactive | inactive | Active | Active | 75.33% | inactive | inactive | Activity (Mus musculus [18]): Active; Activity (Mus musculus [19]): Dose-Dependent Effect; Activity (Mus musculus [20]): Tde; Activity (Mus musculus [21]): inactive; Activity (Mus musculus [22]): Active; Activity (Mus musculus [23]): Active; Activity (Mus musculus [24]): Tde; Activity (Mus musculus [25]): Active; ED50 (Mus musculus [26]): 3.5 nmol; Activity (Mus musculus [27]): inactive; Activity (Mus musculus [28]): Active; Activity [29]: Dose-Dependent Effect; Time [30]: 450 s; Time [31]: 453 s; Activity [32]: Non-Toxic; Activity [33]: Non-Toxic |
